Measured values: patent publication US10059694B2, “2-aminopyrimidine compound and pharmaceutical composition and use thereof” (Shanghai Institute of Materia Medica, Chinese Academy of …, priority 2014, dated 2018)

How the values were obtained:
[1] = system: human epidermal carcinoma A431 cell line; test: SRB proliferation assay, A431 cells; type: cell-based; conditions: A-431, SRB, 72 h, read-out: IC50 A431
Description: (§1) Cell lines: human epidermal carcinoma A431 cell line and human non-small cell lung cancer NCI-H1975 cell line was purchased from the American Standard Biology Collection Center (ATCC).
(§2) Methods: sulforhodamine B (SRB) method, which was as follows: certain number of different tumor cells in logarithmic growth phase were inoculated on 96-well culture plates. After cultured for 24 h to cell adherence, different concentrations of the test compounds of the invention were added. Each concentration was provided with three wells, and a corresponding concentration of DMSO solvent control and a cell-free zeroing well were set. After the cells were treated with the medicine for 72 h, the culture medium was discarded and 100 μL of 10% pre-cooled trichloroacetic acid solution was added to fix the cells. After placed for 1 h at 4° C., it was washed for 5 times with distilled water and dried naturally. Then 100 μL SRB (4 mg/mL) (Sigma) solution was added and stained for 15 min at room temperature. The staining solution was discarded and washed for 5 times with 1% glacial acetic acid and dried. Finally, 150 μL of 10 mM Tris solution (pH 10.5) was added and the OD value was measured at 515 nm with adjustable wavelength microplate enzyme-labeled instrument (VERSAmax™, Molecular Device Corporation, Sunnyvale, Calif., USA).

EGFR^wt = target: T1, EGFR^wt (Homo sapiens, UniProt P00533); test: kinase inhibitory activity test (ELISA), EGFR^WT; type: biochemical; conditions: ATP 5 μM, 1 hour at 37° C.
T1 construct: purchased Millipore
Description: (§3) The enzyme substrate poly (glutamic acid, tyrosine)4:1 (Sigma) was diluted with potassium-free PBS (10 mM sodium phosphate buffer, 150 mM NaCl, pH 7.2-7.4) to 20 μg/mL, plate coated with 125 μL/well, reacted for 12-16 hours at 37° C. After the liquid in the wells was discarded, the plates were washed three times with 200 μL/well of T-PBS (PBS containing 0.1% Tween-20), and each time for 5 minutes, and then dried for 1-2 hours in an oven at 37° C. 50 μL of ATP solution diluted with reaction buffer (50 mM HEPES pH 7.4, 50 mM MgCl2, 5 mM MnCl2, 0.2 mM Na3VO4, 1 mM DTT) was added into each well and the final concentration was 5 μM. The compounds were diluted with 1% DMSO to suitable concentrations and were added at 10 μL/well. […] The above reaction system was reacted for 1 hour at 37° C. shaking table (100 rpm). Control wells with no enzyme and control wells with DMSO solvent were set in each experiment. After the reaction was completed, the plates were washed three times with T-PBS. The anti-phosphotyrosine primary antibody PY99 (Santa Cruz) was added at 100 μL/well and the antibody was diluted with T-PBS containing BSA 5 mg/mL by 1:1000. The mixture was reacted for 0.5 h at 37° C. shaking table, the plates were washed three times with T-PBS. The secondary antibody which was horseradish peroxidase-labeled goat anti-mouse IgG was added at 100 μL/well (the antibody was diluted with T-PBS containing BSA 5 mg/mL by 1:2000). The mixture was reacted for 0.5 h at 37° C. shaking table, the plates were washed three times with T-PBS. 2 l/mL of OPD coloring solution was added at 100 μL/well (diluted with 0.1 M citric acid-sodium citrate buffer (pH=5.4) containing 0.03% H2O2) and dark reacted for 1 to 10 minutes at 25° C. 2 M H2SO4 was added at 50 μL/well to terminate the reaction. Reading was carried out with an adjustable wavelength microplate enzyme-labeled instrument SPECTRA MAX 190 at 490 nm wavelength.
(§4) The IC50 value was calculated by the four-parameter fitting of the suppression curve.

[2] = system: human non-small cell lung cancer NCI-H1975 cell line; test: SRB proliferation assay, NCI-H1975 cells; type: cell-based; conditions: NCI-H1975, SRB, 72 h, read-out: IC50 NCI-H1975
Description: as §1
as §2, with “USA). […] Based on the inhibitory effect of the 2-aminopyrimidine compounds on the growth of these cells, the half maximal inhibitory concentration (IC50) values were calculated, as shown in Table 2.” for “USA).”

EGFR^T790M/L858R = target: T2, EGFR^T790M/L858R (Homo sapiens, UniProt P00533, L858R/T790M); test: kinase inhibitory activity test (ELISA), EGFR^T790M/L858R; type: biochemical; conditions: ELISA, ATP 5 μM, 1 hour at 37° C.
T2 construct: purchased Millipore
Description: as §3, §4

IGF-1R = target: T3, IGF-1R (Homo sapiens, UniProt P08069); test: kinase inhibitory activity test (ELISA), IGF-1R; type: biochemical; conditions: ATP 5 μM, 1 hour at 37° C.
T3 construct: purchased Millipore
Description: The enzyme substrate poly (glutamic acid, tyrosine)4:1 (Sigma) was diluted with potassium-free PBS (10 mM sodium phosphate buffer, 150 mM NaCl, pH 7.2-7.4) to 20 μg/mL, plate coated with 125 μL/well, reacted for 12-16 hours at 37° C. After the liquid in the wells was discarded, the plates were washed three times with 200 μL/well of T-PBS (PBS containing 0.1% Tween-20), and each time for 5 minutes, and then dried for 1-2 hours in an oven at 37° C. 50 μL of ATP solution diluted with reaction buffer (50 mM HEPES pH 7.4, 50 mM MgCl2, 5 mM MnCl2, 0.2 mM Na3VO4, 1 mM DTT) was added into each well and the final concentration was 5 μM. The compounds were diluted with 1% DMSO to suitable concentrations and were added at 10 μL/well. Then different types of tyrosine kinase proteins (including EGFR^wt, EGFR^T790M/L858R and IGF-1R, purchased from Millipore) diluted with 40 μL of reaction buffer were added. The above reaction system was reacted for 1 hour at 37° C. shaking table (100 rpm). Control wells with no enzyme and control wells with DMSO solvent were set in each experiment. After the reaction was completed, the plates were washed three times with T-PBS. The anti-phosphotyrosine primary antibody PY99 (Santa Cruz) was added at 100 μL/well and the antibody was diluted with T-PBS containing BSA 5 mg/mL by 1:1000. The mixture was reacted for 0.5 h at 37° C. shaking table, the plates were washed three times with T-PBS. The secondary antibody which was horseradish peroxidase-labeled goat anti-mouse IgG was added at 100 μL/well (the antibody was diluted with T-PBS containing BSA 5 mg/mL by 1:2000). The mixture was reacted for 0.5 h at 37° C. shaking table, the plates were washed three times with T-PBS. 2 l/mL of OPD coloring solution was added at 100 μL/well (diluted with 0.1 M citric acid-sodium citrate buffer (pH=5.4) containing 0.03% H2O2) and dark reacted for 1 to 10 minutes at 25° C. 2 M H2SO4 was added at 50 μL/well to terminate the reaction. Reading was carried out with an adjustable wavelength microplate enzyme-labeled instrument SPECTRA MAX 190 at 490 nm wavelength.
as §4

T2 sequence (P00533 25-1210 T790M/L858R): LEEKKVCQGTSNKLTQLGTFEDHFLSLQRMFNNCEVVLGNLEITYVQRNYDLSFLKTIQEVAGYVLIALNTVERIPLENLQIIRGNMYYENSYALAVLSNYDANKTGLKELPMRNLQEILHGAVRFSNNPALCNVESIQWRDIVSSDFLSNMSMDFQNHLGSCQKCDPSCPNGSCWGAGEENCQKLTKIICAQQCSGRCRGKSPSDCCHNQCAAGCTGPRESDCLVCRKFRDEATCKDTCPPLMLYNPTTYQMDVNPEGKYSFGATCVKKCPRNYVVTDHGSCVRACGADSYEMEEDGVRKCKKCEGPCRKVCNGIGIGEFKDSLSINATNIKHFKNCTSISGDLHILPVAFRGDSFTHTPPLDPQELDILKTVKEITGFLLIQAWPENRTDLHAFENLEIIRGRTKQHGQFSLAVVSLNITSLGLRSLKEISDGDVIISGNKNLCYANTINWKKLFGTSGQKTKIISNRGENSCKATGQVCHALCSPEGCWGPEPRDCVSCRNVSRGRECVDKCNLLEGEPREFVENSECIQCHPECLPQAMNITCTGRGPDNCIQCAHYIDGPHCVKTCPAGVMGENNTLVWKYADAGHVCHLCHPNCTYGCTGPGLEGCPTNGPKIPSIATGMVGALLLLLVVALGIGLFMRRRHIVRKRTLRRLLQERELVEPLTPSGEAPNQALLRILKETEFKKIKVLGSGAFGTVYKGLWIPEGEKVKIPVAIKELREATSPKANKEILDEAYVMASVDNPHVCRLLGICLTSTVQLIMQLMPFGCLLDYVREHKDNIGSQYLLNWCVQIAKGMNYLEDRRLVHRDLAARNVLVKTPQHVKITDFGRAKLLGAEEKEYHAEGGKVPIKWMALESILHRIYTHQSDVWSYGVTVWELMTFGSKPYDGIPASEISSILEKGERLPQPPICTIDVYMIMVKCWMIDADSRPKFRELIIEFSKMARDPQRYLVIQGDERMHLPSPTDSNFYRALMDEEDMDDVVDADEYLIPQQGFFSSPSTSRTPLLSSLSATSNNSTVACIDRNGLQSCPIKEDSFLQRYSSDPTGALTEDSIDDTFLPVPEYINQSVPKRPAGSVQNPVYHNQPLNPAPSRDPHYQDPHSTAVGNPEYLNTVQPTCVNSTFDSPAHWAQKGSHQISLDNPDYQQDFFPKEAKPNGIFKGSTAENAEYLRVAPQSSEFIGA
T1 sequence (P00533 25-1210): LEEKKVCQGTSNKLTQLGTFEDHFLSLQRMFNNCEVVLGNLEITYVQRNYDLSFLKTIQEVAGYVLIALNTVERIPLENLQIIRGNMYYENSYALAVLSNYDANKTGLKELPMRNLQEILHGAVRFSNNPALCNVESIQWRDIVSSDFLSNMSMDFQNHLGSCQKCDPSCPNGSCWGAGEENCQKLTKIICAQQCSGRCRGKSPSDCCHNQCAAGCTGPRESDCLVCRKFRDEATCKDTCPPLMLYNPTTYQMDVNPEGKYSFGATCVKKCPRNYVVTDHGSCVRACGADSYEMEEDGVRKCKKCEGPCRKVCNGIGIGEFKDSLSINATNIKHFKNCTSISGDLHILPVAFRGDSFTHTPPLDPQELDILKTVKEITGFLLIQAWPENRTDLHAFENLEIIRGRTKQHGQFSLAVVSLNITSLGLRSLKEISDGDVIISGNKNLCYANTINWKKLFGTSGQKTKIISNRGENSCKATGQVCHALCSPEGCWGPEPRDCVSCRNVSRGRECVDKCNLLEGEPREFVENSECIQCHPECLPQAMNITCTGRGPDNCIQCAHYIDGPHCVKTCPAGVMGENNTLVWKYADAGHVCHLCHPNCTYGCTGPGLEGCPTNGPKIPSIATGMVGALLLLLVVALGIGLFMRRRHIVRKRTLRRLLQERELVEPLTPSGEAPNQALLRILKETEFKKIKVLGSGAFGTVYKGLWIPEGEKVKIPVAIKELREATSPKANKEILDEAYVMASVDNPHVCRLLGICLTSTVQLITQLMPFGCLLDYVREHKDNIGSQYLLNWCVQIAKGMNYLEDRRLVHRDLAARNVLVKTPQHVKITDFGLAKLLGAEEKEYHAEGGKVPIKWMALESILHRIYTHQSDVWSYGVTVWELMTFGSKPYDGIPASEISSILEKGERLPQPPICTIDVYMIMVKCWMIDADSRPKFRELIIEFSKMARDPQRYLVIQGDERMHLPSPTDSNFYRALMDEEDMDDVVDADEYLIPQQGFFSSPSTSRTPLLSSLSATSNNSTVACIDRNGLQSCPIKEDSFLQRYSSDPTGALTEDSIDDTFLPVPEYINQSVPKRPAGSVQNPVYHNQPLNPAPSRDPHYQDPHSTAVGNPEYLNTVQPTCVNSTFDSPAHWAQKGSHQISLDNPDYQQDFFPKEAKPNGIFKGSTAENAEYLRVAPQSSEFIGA
T3 sequence (P08069 31-1367): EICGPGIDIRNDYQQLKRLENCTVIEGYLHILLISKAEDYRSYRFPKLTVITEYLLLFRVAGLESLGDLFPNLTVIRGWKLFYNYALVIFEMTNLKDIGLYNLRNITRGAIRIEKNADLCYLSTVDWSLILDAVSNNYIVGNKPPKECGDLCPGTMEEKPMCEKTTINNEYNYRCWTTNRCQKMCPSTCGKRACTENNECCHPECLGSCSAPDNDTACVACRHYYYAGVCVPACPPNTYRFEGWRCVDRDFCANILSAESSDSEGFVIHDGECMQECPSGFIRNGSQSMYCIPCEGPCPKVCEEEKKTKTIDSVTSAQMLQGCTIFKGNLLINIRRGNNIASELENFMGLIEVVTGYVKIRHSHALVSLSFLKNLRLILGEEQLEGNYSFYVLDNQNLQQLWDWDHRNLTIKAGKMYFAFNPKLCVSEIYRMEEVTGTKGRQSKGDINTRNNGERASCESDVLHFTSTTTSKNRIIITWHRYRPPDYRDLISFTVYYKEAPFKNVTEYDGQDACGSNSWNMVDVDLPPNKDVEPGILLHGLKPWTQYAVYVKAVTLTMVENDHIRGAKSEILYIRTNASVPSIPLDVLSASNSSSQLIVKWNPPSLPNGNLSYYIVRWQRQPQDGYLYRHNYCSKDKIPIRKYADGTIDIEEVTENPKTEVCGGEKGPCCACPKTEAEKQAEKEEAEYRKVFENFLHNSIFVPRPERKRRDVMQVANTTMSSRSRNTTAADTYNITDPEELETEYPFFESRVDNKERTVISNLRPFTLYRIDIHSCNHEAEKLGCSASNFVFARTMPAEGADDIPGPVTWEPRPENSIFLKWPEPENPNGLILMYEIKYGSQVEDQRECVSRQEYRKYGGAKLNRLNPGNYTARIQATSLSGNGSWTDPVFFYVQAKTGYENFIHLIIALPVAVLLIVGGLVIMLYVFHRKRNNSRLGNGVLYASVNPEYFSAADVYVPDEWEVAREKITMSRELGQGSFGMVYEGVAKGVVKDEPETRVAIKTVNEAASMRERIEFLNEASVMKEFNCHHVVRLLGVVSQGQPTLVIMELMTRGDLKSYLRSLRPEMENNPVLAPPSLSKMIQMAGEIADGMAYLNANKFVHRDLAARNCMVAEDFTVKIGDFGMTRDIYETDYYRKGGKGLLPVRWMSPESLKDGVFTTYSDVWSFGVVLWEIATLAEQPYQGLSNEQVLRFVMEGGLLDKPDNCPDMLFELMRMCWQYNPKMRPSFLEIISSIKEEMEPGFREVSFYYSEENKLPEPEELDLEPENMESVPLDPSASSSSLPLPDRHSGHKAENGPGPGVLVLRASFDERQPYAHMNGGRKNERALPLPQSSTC

COc1ccc(NC(=O)/C=C/CN(C)C)cc1Nc1ncc(Cl)c(Nc2ccc3[nH]ccc3c2)n1 [CCB145231, (E)-N-((3-((5-chloro-4-((indol-5-yl)amino))pyrimidin-2-yl)amino)-4-methoxyphenyl)-4-(dimethylamino)-2-butenamide]
IC50 [1]: 615 nM
IC50 (EGFR^wt): 295 nM
IC50 [2]: 289 nM
IC50 (EGFR^T790M/L858R): 30.8 nM
IC50 (IGF-1R): 38 nM

COc1ccc(NC(=O)/C=C/CN(C)C)cc1Nc1nccc(Nc2ccc3ccccc3c2)n1 [CCB145242, (E)-N-((3-(4-((naphthalen-2-yl)amino)pyrimidin-2-yl)amino)-4-methoxyphenyl)-4-(dimethylamino)-2-butenamide]
IC50 [1]: 1040 nM
IC50 (EGFR^wt): 54.1 nM
IC50 [2]: 885 nM
IC50 (EGFR^T790M/L858R): 56.6 nM
IC50 (IGF-1R): 98.5 nM

COc1ccc(NC(=O)/C=C/CN2CCOCC2)cc1Nc1ncc(Cl)c(Nc2ccc3ccccc3c2)n1 [CCB120025, (E)-N-((3-((5-chloro-4-((naphthalen-2-yl)amino))pyrimidin-2-yl)amino)-4-methoxyphenyl)-4-(morpholin-1-yl)-2-butenamide]
IC50 (EGFR^wt): 567 nM
IC50 [2]: 895 nM
IC50 (EGFR^T790M/L858R): 11.9 nM
IC50 (IGF-1R): 132 nM

COc1ccc(NC(=O)/C=C/CN2CCN(C(C)=O)CC2)cc1Nc1ncc(Cl)c(Nc2ccc3ccccc3c2)n1 [CCB120029, (E)-N-((3-((5-chloro-4-((naphthalen-2-yl)amino))pyrimidin-2-yl)amino)-4-methoxyphenyl)-4-(4-acetylpiperazin-1-yl)-2-butenamide]
IC50 (EGFR^wt): 695 nM
IC50 [2]: 1050 nM
IC50 (EGFR^T790M/L858R): 19.1 nM
IC50 (IGF-1R): 99.4 nM

CC(C)Oc1ccc(NC(=O)/C=C/CN(C)C)cc1Nc1ncc(Cl)c(Nc2ccc3ccccc3c2)n1 [CCB145384, (E)-N-((3-((5-chloro-4-((naphthalen-2-yl)amino))pyrimidin-2-yl)amino)-4-isopropoxyphenyl)-4-(dimethylamino)-2-butenamide]
IC50 [1]: 671 nM
IC50 (EGFR^wt): 2680 nM
IC50 [2]: 1970 nM
IC50 (EGFR^T790M/L858R): 266 nM
IC50 (IGF-1R): 272 nM

C=CC(=O)Nc1cc(CN2CCOCC2)cc(Nc2ncc(Cl)c(Nc3ccc4ccccc4c3)n2)c1 [CCB120106]
IC50 [1]: 2000 nM
IC50 (EGFR^wt): > 1000 nM
IC50 [2]: 311 nM
IC50 (EGFR^T790M/L858R): 4.1 nM
IC50 (IGF-1R): 138 nM

CC(C)Oc1ccc(NC(=O)/C=C/CN(C)C)cc1Nc1ncc(Br)c(Nc2ccc3ccccc3c2)n1 [CCB145385, (E)-N-((3-((5-bromo-4-((naphthalen-2-yl)amino))pyrimidin-2-yl)amino)-4-isopropoxyphenyl)-4-(dimethylamino)-2-butenamide]
IC50 [1]: 7580 nM
IC50 (EGFR^wt): 3620 nM
IC50 [2]: 5740 nM
IC50 (EGFR^T790M/L858R): 177 nM
IC50 (IGF-1R): 316 nM

COc1ccc(NC(=O)/C=C/CN(C)C)cc1Nc1ncc(C#N)c(Nc2ccc3ccccc3c2)n1 [CCB145293, (E)-N-((3-((5-cyano-4-((naphthalen-2-yl)amino))pyrimidin-2-yl)amino)-4-methoxyphenyl)-4-(dimethylamino)-2-butenamide]
IC50 [1]: 1300 nM
IC50 (EGFR^wt): 173 nM
IC50 [2]: 327 nM
IC50 (EGFR^T790M/L858R): 22.6 nM
IC50 (IGF-1R): 193 nM

COc1ccc(NC(=O)/C=C/CN(C)C)cc1Nc1ncc(Cl)c(Nc2cnc3ccccc3c2)n1 [CCB145221, (E)-N-((3-((5-chloro-4-((quinolin-3-yl)amino))pyrimidin-2-yl)amino)-4-methoxyphenyl)-4-(dimethylamino)-2-butenamide]
IC50 [1]: 646 nM
IC50 (EGFR^wt): 848 nM
IC50 [2]: 170 nM
IC50 (EGFR^T790M/L858R): 37.6 nM
IC50 (IGF-1R): 12.5 nM

C=CC(=O)Nc1cc(Nc2ncc(Cl)c(Nc3ccc4ccccc4c3)n2)c(OC)cc1N1CCOCC1 [CCB120117, N-((5-((5-chloro-4-((naphthalen-2-yl)amino))pyrimidin-2-yl)amino)-2-morpholinyl-4-methoxyphenyl)acrylamide]
IC50 [1]: > 10000 nM
IC50 (EGFR^wt): > 100 nM
IC50 [2]: 272 nM
IC50 (EGFR^T790M/L858R): 9.4 nM
IC50 (IGF-1R): 18.7 nM

COc1ccc(NC(=O)/C=C/CN(C)C)cc1Nc1ncc(C(F)(F)F)c(Nc2ccc3ccccc3c2)n1 [CCB145274, (E)-N-((3-((5-trifluoromethyl-4-((naphthalen-2-yl)amino))pyrimidin-2-yl)amino)-4-methoxyphenyl)-4-(dimethylamino)-2-butenamide]
IC50 [1]: 1220 nM
IC50 (EGFR^wt): 2070 nM
IC50 [2]: 682 nM
IC50 (EGFR^T790M/L858R): 31.3 nM
IC50 (IGF-1R): 41 nM

C=CC(=O)Nc1cc(Nc2nccc(-c3cn(C)c4ccccc34)n2)c(OC)cc1N(C)CCN(C)C [AZD9291, reference compound]
IC50 (IGF-1R): > 1000 nM

C=CC(=O)Nc1cc(Nc2ncc(Cl)c(Nc3ccc4ccccc4c3)n2)c(OC)cc1N(C)CCNC [CCB4580030, N-((5-((5-chloro-4-(naphthalene-2-ylamino)pyrimidine-2-yl)amino)-4-methoxy-2-(methyl(2-methylamino)ethyl)amino)phenyl)acrylamide]
IC50 (EGFR^wt): 3.1 nM
IC50 (EGFR^T790M/L858R): 2.2 nM
IC50 (IGF-1R): 7.8 nM

C=CC(=O)Nc1cccc(Nc2nc(Nc3ccc(N4CCN(C(C)=O)CC4)cc3OC)ncc2C(F)(F)F)c1 [CO1686, reference compound]
IC50 [1]: 972 nM
IC50 [2]: 215 nM
IC50 (IGF-1R): 1320 nM
